According to patent US20160129005A1, “ADENINE DERIVATIVES HAVING IMMUNOMODULATING ANTI-INFLAMMATORY AND ANALGESIC ACTIVITY” (MEDESTEA RESEARCH & PRODUCTION S.p.A., priority 2011, published 2016):

Columns and labels:
Dark Agouti (DA) rats = test: Chronic experimental autoimmune encephalomyelitis (MOG); format: in vivo, rat; conditions: 1 mg/kg per os daily from day of inoculation, to day 50; dose-dependent; FIG. 43
Procedure: We investigated whether treatment with […], at the onset of EAE induced by immunization with MOG (myelin-oligodendrocyte-glycoprotein), stimulates histologic protection and functional recovery.
The motor and sensory deficits were classified according to the previously assigned “neuronal” clinical scores.
Chronic EAE was induced in 60 female adult Dark Agouti (DA) rats of 120-170 g, immunizing the animals with an intradermal injection, at the base of the tail, of […] of recombinant protein MOG1-125 in emulsified PBS in complete Freund adjuvant (CFA) containing hot-inactivated M. tuberculosis.
The rats were divided into 3 groups of 20 animals each and were treated with daily administrations of vehicle or […] 0.1 or 1 mg/kg per os, starting from the day of inoculation.
The neurological scores were measured and evaluated daily for the first thirty days, and thereafter only on weekdays (Monday-Friday) until the end of the study (day 50).
The range of neuroclinical scores begins at 0 (absence of neurologic symptoms) and ends with a score of 5 (complete paralysis of all legs or animal moribund).

Swiss CD1 mice = test: CFA thermal hyperalgesia, synergy with opioids
Procedure: We compared the activity of […] with that of the opioids to study its analgesic effect.
Mice of the Swiss CD1 type were given a single intraplantar injection of 30 microlitres of complete Freund adjuvant (CFA) in the right plantar pad. Intraperitoneal injection of […] and/or of morphine (morphine chlorhydrate, Molteni) was administered 24 hours after injection of CFA according to the following scheme:
1. […] 7.5 mg/kg; 2. […] 10 mg/kg; 3. […] 200 mg/kg; 4. […] 50 mg/kg; 5. Morphine 0.4 mg/kg; 6. Morphine 2.5 mg/kg; 7. Morphine 1 mg/kg; 8. Morphine 0.4 mg/kg; 9. Morphine 1 mg/kg+[…] 10 mg/kg; 10. Morphine 0.4 mg/kg+[…] 10 mg/kg; 11. Morphine 1 mg/kg+[…] 10 mg/kg; 12. Morphine 0.4 mg/kg+[…] 10 mg/kg; 13. Morphine 4 mg/kg.
Groups 9-11 and 10-12 have the same doses respectively; they were repeated to confirm the results.
Thermal hyperalgesia was assessed using the Ugo Basile apparatus (Comerio, Italy).
The test was carried out before (baseline values) injection of CFA, after injection of CFA and 0.5, 1, 2, 3, 6 and 12 hours after injecting the drug in the inflamed pad.

Sprague-Dawley (SD) rats = test: Renal ischaemia/reperfusion injury; format: in vivo, rat
Source text: Ischaemia is an acute pathologic event in which there is reduction in blood supply with resultant injury or dysfunction of the affected tissue. Currently, the obstructed blood vessel is cleared by direct intervention. The resumption of normal circulation after a period of hypoxia causes quite considerable tissue injury, however, with fibrotic results that undermine the functionality of the affected organ. […] We wanted to check whether […] could reduce the injury due to reperfusion and to do so we used a model of renal ischaemia. The model envisages creation of an ischaemic event and then verification of the injury following treatment with […] or with the vehicle.
The experiment was conducted on Sprague-Dawley (SD) rats of 250-300 g divided into three groups. The first group, the […], only underwent an incision, which was kept open for 30 minutes, without ischaemic injury. The other two were pretreated, 30 minutes before undergoing the intervention, with intraperitoneal administration of vehicle (group 2) or of […] (group 3) 10 mg/kg. […]
The kidneys were sectioned for histologic analysis in double-blind conditions. The percentages of the tissue changes observed were counted using a 5-point semiquantitative scale, defined for assessing necrosis and cellular loss: 0=normal kidney; 0.5=<10%; 1=10-25%; 2=25-50%; 3=50-75%; 4=75-100%.

[1] = system: diabetic C57BL/6 mice transplanted with BALB/c islets; test: Survival of allogenic pancreatic islets in murine transplant model; format: in vivo, mouse; conditions: 9 mg/kg or 30 mg/kg i.p. daily; FIG. 24
Procedure: C57BL/6 mice were made diabetic by administration of streptozotocin (170 mg/kg) and, following transplant of allogenic pancreatic islets, were treated with […].
The pancreatic islets, isolated from the BALB/c mouse, were inoculated in the diabetic mouse according to the procedure described by Abde R et al. (Diabetes 51 (8): 2489-2495). The glycaemia values were measured daily for monitoring the functionality of the transplanted cells.
The significance of rejection of transplanted cells that occurred was attributed to glycaemia values above 250 mg/dl, obtained in two consecutive measurements. After the cells were implanted (day 0), the mice were treated with intraperitoneal injections of 9 mg/kg or 30 mg/kg of […] daily.
The combination of […] and Rapamycin, currently the most used of the immunosuppressive drugs, was tested on the same animal model.
Both drugs were administered 6 times (day 0, day 2, day 4, day 6, day 8, day 10); […] was administered at 2 doses.

murine neuroblastoma = conditions: tissue cultures; Mirkin et al., Cancer Research 47, 1987; cited from earlier work
female NOD mice = test: Type 1 diabetes spontaneous model; format: in vivo, mouse; conditions: 0.25 mg intravenously 5 days every two weeks from 11 weeks of age; at the 28th week; carriers 7 out of 14
Source text: NOD (“non-obese diabetic”) mice represent the spontaneous murine model of type 1 diabetes (Adorini et al., 2002). The loss of metabolic control characterized by hyperglycaemia and glycosuria, which defines the disease clinically, is preceded by a long phase called pre-diabetes, during which the response to specific autoantigens of the beta cells of the pancreas develops subclinically, but progressively. In the NOD mice, the disease begins clinically around the 14th week of age when the infiltrating inflammatory cells invade the islets and develop an aggressive insulitis, which leads to destruction of the beta cells and causes hyperglycaemia (Anderson and Bluestone, 2005). The autoreactive CD4+ and CD8+ T cells play a fundamental role in the pathogenesis of type 1 diabetes.
We treated female NOD mice at 11 weeks of age with 0.25 mg […] or carriers intravenously for 5 days every two weeks and monitored glycaemia every week. Only one out of 8 mice treated with […] developed diabetes at the 28th week of age, whereas 7 out of 14 mice treated with carriers developed diabetes or died starting from the 14th week of age (FIG. 32).

SMILES: C=C(C=O)OC(C=O)n1cnc2c(N)ncnc21 (centres unmarked) [2-[1-(6-aminopurin-9-yl)-2-oxoethoxy]prop-2-enal]
- neurological scores (Dark Agouti (DA) rats): remained lower throughout the period of observation
- values of nociception (thermal hyperalgesia) (Swiss CD1 mice; IMMUFLAM alone i.p., all the doses tested): brings back the values of nociception to the baseline values
- obsessive-compulsive disorders (behaviour) (Swiss CD1 mice; mice treated with IMMUFLAM alone): did not display any behaviour of this kind
- renal injury (histological damage score and organ functionality) (Sprague-Dawley (SD) rats; 10 mg/kg i.p., FIG. 6): largely prevents renal injury
- plasma creatinine levels (Sprague-Dawley (SD) rats; group 3, 10 mg/kg i.p. 30 minutes before ischaemia, 24 hours, group 1 = sham, FIG. 5): values much closer to those of group 1
- rejection of transplanted islets (glycaemia above 250 mg/dl twice) [1]: no rejection up to day 100
- cytotoxic activity (murine neuroblastoma): cytotoxic activity
- mice that developed diabetes (female NOD mice): one out of 8
